Source: PubChem BioAssay AID2060897 (Molecular Pharmacology Branch, DTP, NCI, 2025)

System: 966289-007-R4-J1-PDC complex spheroid viability
Assay: Anticancer human tumor 966289-007-R4-J1-PDC patient-derived pancreatic adenocarcinoma cell line growth inhibition [RAS]
Settings: for IC50: curve of first compound; for viability, T/C: stronger effect = lower value
Text: RAS pathway inhibitors in Combinations in Complex Spheroids
A high-throughput screen of multi-cell type tumor spheroids was designed to identify active combinations of RAS pathway inhibitors and targeted small molecules. Complex spheroids include a stromal component modeled by human endothelial cells (HUVEC) and fibroblasts modeled by human mesenchymal stem cells (MSCs). The concentration ranges selected for each drug and investigational agent were based upon clinically achievable concentrations if the clinical Cmax of the agent was known.
Compounds. The drugs and investigational agents: abemaciclib (NSC768073), cobimetinib (NSC768068), divarasib (GDC6063, NSC841802), docetaxel (NSC628503), GDC-1971 (RLY-1971, NSC841576), gemcitabine (NSC613327), inavolisib (NSC800729), ipatasertib (NSC767898), KB-0742 (NSC834161), MRTX-1133 (NSC836407), osimertinib (NSC779217), RMC-4630 (NSC839698), RMC-6236 (NSC851965), RMC-6291 (NSC852671), Ro-3306 (NSC812927), sapanisertib (NSC764658), SN-38 (NSC673596), staurosporine (NSC755774), SY5609 (NSC837396), and tovorafenib (DAY101, NSC766906), were obtained from the National Cancer Institute (NCI) Developmental Therapeutics Program Chemical Repository. The FDA-approved anticancer drug set is available from the NCI Developmental Therapeutics Program. […] The stock solutions were prepared in dimethyl sulfoxide (DMSO, Sigma-Aldrich, St. Louis, MO, cat. D2650) at 800-fold the tested concentration and stored at -70 degrees C prior to their use. All drugs and investigational agents were tested over a range starting from a high concentration at or near the clinical Cmax and decreasing in half-log increments. If the clinical Cmax for an agent had not been determined, the highest concentration tested was 10 microM.
Cell Culture. All cells were maintained in an incubator at 37 degrees C and 5% CO2 with 95% humidity. The PDC lines were cultured according to standard operating procedures established by the NCI PDMR. All PDCs were thawed and cultured in Matrigel-coated flasks prepared with a working solution of 1X Ham's F-12 nutrient mix, without supplementation (Invitrogen, Waltham, MA, cat. 11765054), 100 U/mL penicillin-streptomycin (Invitrogen, cat. 15140122), and 2.5% Matrigel (Corning Inc., Corning, NY, cat. 354248) for the first three passages. The 362531-283-R-J2-PDC and 782815-120-R-J1-PDC lines were cultured in 6C/Colon 1B media, which includes advanced DMEM/F-12 (Thermo Fisher Scientific, cat. 12634028), 10 mM HEPES (Thermo Fisher Scientific, cat. 15630080), 1X GlutaMAX supplement (Thermo Fisher Scientific, cat. 35050061), 0.1 mg/mL primocin (InvivoGen, San Diego, CA, cat. ant-pm-2), 10% defined fetal bovine serum, heat inactivated (HyClone Laboratories Inc., Logan, UT, cat. SH30070.03HI), 50% L-WRN conditioned media (ATCC, cat. CRL-3276), 1.25 mM N-Acetyl-L-cysteine (Sigma-Aldrich, cat. A9165), 10 mM nicotinamide (Sigma-Aldrich, cat. N0636), 1X B-27 supplement (Thermo Fisher Scientific, cat. 17504044), 1X N-2 supplement (Thermo Fisher Scientific, cat. 17502048), 50 ng/mL human EGF (Thermo Fisher Scientific, cat. PHG0311), and 10 microM Y-27632 dihydrochloride (Tocris Bioscience, cat. 1254). The K12877-001-R-J1-PDC line was cultured in 6I media, which includes all 6C/Colon 1B media plus 10 ng/mL human FGF-10 (PeproTech, cat. 100-26), 1 ng/mL human FGF-2 (PeproTech, cat. 100-18B), 1 µM prostaglandin E2 (Tocris Bioscience, cat. 2296), […] hydrocortisone (Sigma-Aldrich, cat. H4001), and […] bovine insulin (Sigma-Aldrich, cat. I6634). The K86415-001-R-J1-PDC line was cultured in 6D media, which includes all 6C/Colon 1B media components minus the L-WRN conditioned media. The 485176-168-R4-J1-PDC was cultured in PANC media, which includes all 6C/Colon 1B media plus 100 ng/mL human FGF-10 (PeproTech, cat. 100-26), 500 nM SB-431542 (Selleckchem, cat. S1067), and 10 nM gastrin (Tocris Bioscience, cat. 3006). […]

[1] = second compound 0.00316 µM, first compound 0.0316 µM
[2] = second compound 0.00316 µM, first compound 0.1 µM
[3] = second compound 0.00316 µM, first compound 0.316 µM
[4] = second compound 0.00316 µM, first compound 1 µM
[5] = second compound 0.00316 µM, first compound 3.16 µM
[6] = second compound 0.00316 µM, first compound 10 µM
[7] = second compound 0.01 µM, first compound 0.0316 µM
[8] = second compound 0.01 µM, first compound 0.1 µM
[9] = second compound 0.01 µM, first compound 0.316 µM
[10] = second compound 0.01 µM, first compound 1 µM
[11] = second compound 0.01 µM, first compound 3.16 µM
[12] = second compound 0.01 µM, first compound 10 µM
[13] = second compound 0.0316 µM, first compound 0.0316 µM
[14] = second compound 0.0316 µM, first compound 0.1 µM
[15] = second compound 0.0316 µM, first compound 0.316 µM
[16] = second compound 0.0316 µM, first compound 1 µM
[17] = second compound 0.0316 µM, first compound 3.16 µM
[18] = second compound 0.0316 µM, first compound 10 µM
[19] = second compound 0.1 µM, first compound 0.0316 µM
[20] = second compound 0.1 µM, first compound 0.1 µM
[21] = second compound 0.1 µM, first compound 0.316 µM
[22] = second compound 0.1 µM, first compound 1 µM
[23] = second compound 0.1 µM, first compound 3.16 µM
[24] = second compound 0.1 µM, first compound 10 µM
[25] = second compound 0.316 µM, first compound 0.0316 µM
[26] = second compound 0.316 µM, first compound 0.1 µM
[27] = second compound 0.316 µM, first compound 0.316 µM
[28] = second compound 0.316 µM, first compound 1 µM
[29] = second compound 0.316 µM, first compound 3.16 µM
[30] = second compound 0.316 µM, first compound 10 µM
[31] = second compound 1 µM, first compound 0.0316 µM
[32] = second compound 1 µM, first compound 0.1 µM
[33] = second compound 1 µM, first compound 0.316 µM
[34] = second compound 1 µM, first compound 1 µM
[35] = second compound 1 µM, first compound 3.16 µM
[36] = second compound 1 µM, first compound 10 µM
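Further: spheroids exposed to agents for one week before readout.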
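Wherever viability, T/C is given: percent viability relative to DMSO vehicle control wells as 100%.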

Compound: CC(C)NCC(C(=O)N1CCN(c2ncnc3c2C(C)CC3O)CC1)c1ccc(Cl)cc1 (centres undefined) + C=CC(=O)N1CCN(c2nc(OCC3CCCN3C)nc3c(F)c(-c4nc(N)cc(C)c4C(F)(F)F)c(Cl)cc23)C(C)C1
- IC50 (second compound 0.00316 µM): 5.59 µM
- IC50 (second compound 0.01 µM): 5.17 µM
- IC50 (second compound 0.0316 µM): 5.85 µM
- IC50 (second compound 0.1 µM): 5.45 µM
- IC50 (second compound 0.316 µM): 5.98 µM
- IC50 (second compound 1 µM): 5.35 µM
- viability, T/C [1]: 99.8%
- viability, T/C [2]: 85.1%
- viability, T/C [3]: 112%
- viability, T/C [4]: 101%
- viability, T/C [5]: 70.1%
- viability, T/C [6]: 29.5%
- viability, T/C [7]: 105%
- viability, T/C [8]: 96.7%
- viability, T/C [9]: 118%
- viability, T/C [10]: 99.5%
- viability, T/C [11]: 61.9%
- viability, T/C [12]: 34.3%
- viability, T/C [13]: 99.7%
- viability, T/C [14]: 110%
- viability, T/C [15]: 126%
- viability, T/C [16]: 104%
- viability, T/C [17]: 67.2%
- viability, T/C [18]: 35.1%
- viability, T/C [19]: 116%
- viability, T/C [20]: 104%
- viability, T/C [21]: 132%
- viability, T/C [22]: 110%
- viability, T/C [23]: 63.2%
- viability, T/C [24]: 35.4%
- viability, T/C [25]: 106%
- viability, T/C [26]: 97.1%
- viability, T/C [27]: 127%
- viability, T/C [28]: 107%
- viability, T/C [29]: 67.5%
- viability, T/C [30]: 35.9%
- viability, T/C [31]: 101%
- viability, T/C [32]: 95.8%
- viability, T/C [33]: 115%
- viability, T/C [34]: 90.1%
- viability, T/C [35]: 62.9%
- viability, T/C [36]: 35.5%

Compound: CCC(CC)c1cc(NC2CCC(N)C2)n2nccc2n1 (centres undefined) + C=CC(=O)N1CCN(c2nc(OCC3CCCN3C)nc3c(F)c(-c4nc(N)cc(C)c4C(F)(F)F)c(Cl)cc23)C(C)C1
- IC50 (second compound 0.00316 µM): 1.9 µM
- IC50 (second compound 0.01 µM): 1.83 µM
- IC50 (second compound 0.0316 µM): 1.85 µM
- IC50 (second compound 0.1 µM): 1.88 µM
- IC50 (second compound 0.316 µM): 1.86 µM
- IC50 (second compound 1 µM): 1.84 µM
- viability, T/C [1]: 104%
- viability, T/C [2]: 93.6%
- viability, T/C [3]: 112%
- viability, T/C [4]: 131%
- viability, T/C [5]: 2.16%
- viability, T/C [6]: 2.13%
- viability, T/C [7]: 99.5%
- viability, T/C [8]: 95.7%
- viability, T/C [9]: 101%
- viability, T/C [10]: 114%
- viability, T/C [11]: 2.2%
- viability, T/C [12]: 2.15%
- viability, T/C [13]: 92%
- viability, T/C [14]: 102%
- viability, T/C [15]: 103%
- viability, T/C [16]: 123%
- viability, T/C [17]: 2.15%
- viability, T/C [18]: 1.75%
- viability, T/C [19]: 103%
- viability, T/C [20]: 103%
- viability, T/C [21]: 111%
- viability, T/C [22]: 117%
- viability, T/C [23]: 2.07%
- viability, T/C [24]: 2.09%
- viability, T/C [25]: 103%
- viability, T/C [26]: 97.9%
- viability, T/C [27]: 98.8%
- viability, T/C [28]: 125%
- viability, T/C [29]: 2.42%
- viability, T/C [30]: 2.33%
- viability, T/C [31]: 91.4%
- viability, T/C [32]: 92.1%
- viability, T/C [33]: 119%
- viability, T/C [34]: 113%
- viability, T/C [35]: 2.27%
- viability, T/C [36]: 2.77%
